The first experiment addresses SOS1 and KRAS G12D (protein-protein interaction) (Homo sapiens, UniProt Q07889). Put plainly: KRAS::SOS1 AlphaScreen binding assay.
Settings: not given
A digest of the protocol: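 Compounds were tested in duplicate at 11 concentrations (1:5 serial from 100 μM, 1% DMSO). They were preincubated 30 min with final 10 nM KRAS G12D, 10 μM GDP and 5 nM GST-SOS1, then glutathione acceptor and streptavidin donor beads (10 μg/mL each) were added for 60 min at RT in the dark. AlphaScreen signal gave IC50 via 4-parameter logistic fit.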
Take `Cc1nc(N[C@H](C)c2cccc(C(F)(F)F)c2)c2cc([C@]3(O)CC[C@H](O)CC3)cc(C)c2n1` [I-55]: the IC50 (usually the concentration needed to halve the response being measured) came out at 20 nM.

With `Cc1nc(N[C@H](C)c2cccc(C(F)(F)F)c2)c2cc([C@]3(O)CC[C@@H](O)CC3)ccc2n1` [I-60], the IC50 was determined as 10 nM. On the same count and under the same terms, with `Cc1nc(N[C@H](C)c2cccc(C(F)(F)F)c2)c2cc([C@]3(O)CC[C@H](O)CC3)ccc2n1` [I-59] the figure was 20 nM; with `COc1cc2nc(C)nc(N[C@H](C)c3cccc(C(F)(F)F)c3F)c2cc1[C@]1(O)CC[C@@H](O)CC1` [I-58], 6 nM; with `COc1cc2nc(C)nc(N[C@H](C)c3cccc(C(F)(F)F)c3)c2cc1[C@]1(O)CC[C@@H](C(=O)N(C)CCO)CC1` [I-75], 7 nM.

The experiment is the same for the next values; noted with them: assay buffer with 100 μM EDTA (values marked with an asterisk); read-out: IC50 (SOS1).
For the compound `COc1cc2nc(C)nc(N[C@H](C)c3cccc(S(C)(=O)=O)c3)c2cc1O[C@H]1CCOC1` [I-3], the IC50 amounted to 47 nM.

Turning to `Cc1cccc([C@@H](C)Nc2nc(C)nc3ccc(C4CCNCC4)cc23)c1` [I-183], the IC50 stood at 38 nM. `Cc1nc(N[C@H](C)c2cccc(Cl)c2)c2cc(C3=CCNCC3)ccc2n1` [I-172]: the IC50 was 39 nM.

Still in this experiment, the particulars now being: assay buffer without EDTA (values not marked with an asterisk); read-out: IC50 (SOS1).
As for `COc1cc2nc(C)nc(N[C@H](C)c3cccc(C(F)(F)CO)c3)c2cc1C1CCN(C(C)=O)CC1` [I-166], the IC50 was 2 nM. With `COc1cc2nc(C)nc(N[C@H](C)c3cccc(C(F)(F)F)c3F)c2cc1C1(O)CCC(C(=O)N(C)C)CC1` (stereo partly drawn) [I-77], the IC50 stood at 5 nM. The same measure, in the same setting: the result for `COCC(=O)N1CCC(O)(c2cc3c(N[C@H](C)c4cccc(C(F)(F)F)c4F)nc(C)nc3cc2OC)CC1` [I-46] reads 4 nM. On the same count and under the same terms, the result for `Cc1nc(N[C@H](C)c2cccc(C(F)(F)F)c2)c2cc(C3CCN(CC(=O)O)CC3)ccc2n1` [I-293] reads 11 nM.

On to `COc1cc2nc(C)nc(N[C@H](C)c3cccc(C(F)(F)CO)c3)c2cc1C1CCOCC1` [I-164], for which the IC50 amounted to 3 nM. In the case of `COc1cc2nc(C)nc(N[C@H](C)c3cccc(C(F)(F)CO)c3)c2cc1O[C@H]1CCOC1` [I-1], the IC50 came out at 3 nM. Still for that read-out and setting: with `COc1cc2nc(C)nc(N[C@H](C)c3cccc(C4(O)COC4)c3)c2cc1O[C@H]1CCOC1` [I-16] the figure was 38 nM; with `COc1cc2nc(C)nc(N[C@H](C)c3cccc(C4(O)COC4)c3)c2cc1C1CCN(C(C)=O)CC1` [I-167], 18 nM.

As for `Cc1cccc([C@@H](C)Nc2nc(C)nc3c(C)cc(C4CCN(CC(=O)O)CC4)cc23)c1` [I-292], the IC50 turned out to be 28 nM.

Still in this experiment, the particulars now being: read-out: IC50 (SOS1).
Consider `COc1cc2nc(C)nc(N[C@H](C)c3cc(N)cc(C(F)(F)F)c3)c2cc1[C@H]1CC[C@@H](C(=O)N2CCN(C)CC2)CC1` [I-354], for which the IC50 worked out at 22 nM. As for `Cc1nc(N[C@H](C)c2cccc(C(F)(F)F)c2)c2cc([C@H]3CC[C@H](C(=O)N4CC(F)C4)CC3)ccc2n1` [I-231], the IC50 worked out at 19 nM. On to `COc1cc2nc(C)nc(N[C@H](C)c3cccc(C(F)(F)F)c3C)c2cc1[C@H]1CC[C@H](C(=O)N(C)C)CC1` [I-296], for which the IC50 worked out at 7 nM. As for `COc1cc(-c2cc3c(N[C@H](C)c4cccc(C(F)(F)F)c4)nc(C)nc3cc2OC)ccc1C(=O)N(C)C` [I-217], the IC50 is 43 nM. Turning to `Cc1nc(N[C@H](C)c2cc(N)cc(C(F)(F)F)c2)c2cc(-c3cc4n(n3)CCC(=O)N4)ccc2n1` [I-90], the IC50 stood at 7 nM. As to `COCCN1CCN(C(=O)[C@H]2CC[C@@H](c3ccc4nc(C)nc(N[C@H](C)c5cc(N)cc(C(F)(F)F)c5)c4c3)CC2)CC1` [I-241], the IC50 was 7 nM. Still for that read-out and setting: the result for `Cc1nc(N[C@H](C)c2cc(N)cc(C(F)(F)F)c2)c2cc([C@H]3CC[C@H](C(=O)N(C)[C@H]4CCOC4)CC3)ccc2n1` [I-250] reads 4 nM; that for `COCC(=O)N1CCC(c2cc3c(N[C@H](C)c4cc(N)cc(C(F)(F)F)c4)nc(C)nc3cc2C)CC1` [I-315], 3 nM. With `Cc1nc(N[C@H](C)c2cc(N)cc(C(F)(F)F)c2)c2cc([C@H]3CC[C@H](C(=O)N4CCOCC4)CC3)ccc2n1` [I-234], the IC50 is 2 nM.

Take `CONC(=O)CC(C)c1cc2c(N[C@H](C)c3cccc(C(F)(F)F)c3)nc(C)nc2cc1OC` (stereo partly drawn) [I-382]: the IC50 was determined as 16 nM. Turning to `Cc1nc(N[C@H](C)c2cc(N)cc(C(F)(F)F)c2)c2cc([C@H]3CC[C@H](C(=O)N(C)C)CC3)ccc2n1` [I-298], the IC50 worked out at 3 nM.

As to `Cc1nc(N[C@H](C)c2cccc(C(F)(F)F)c2)c2cc(C3CCN(CC(=O)N(C)C)CC3)ccc2n1` [I-273], the IC50 is 11 nM. On the same count and under the same terms, with `COCCN(C)C(=O)[C@H]1CC[C@H](c2cc3c(N[C@H](C)c4cc(N)cc(C(F)(F)F)c4)nc(C)nc3cc2OC)CC1` [I-357] the figure was 3 nM; with `Cc1nc(N[C@H](C)c2cccc(C(F)(F)F)c2)c2cc(C(C)CC(=O)NC3CC3)c(C)cc2n1` (stereo partly drawn) [I-379], 12 nM. `Cc1nc(N[C@H](C)c2cc(N)cc(C(F)(F)F)c2)c2cc([C@H]3CC[C@@H](C(=O)N(C)[C@@H]4CCOC4)CC3)ccc2n1` [I-243]: the IC50 worked out at 9 nM.

For the compound `COCCN(C)C(=O)[C@H]1CC[C@@H](c2cc3c(N[C@H](C)c4cc(N)cc(C(F)(F)F)c4)nc(C)nc3cc2OC)CC1` [I-358], the IC50 is 49 nM. With `Cc1nc(N[C@H](C)c2cc(N)cc(C(F)(F)F)c2)c2cc([C@H]3CC[C@H](C(=O)N(C)[C@@H]4CCOC4)CC3)ccc2n1` [I-242], the IC50 worked out at 5 nM. On the same count and under the same terms, with `Cc1nc(N[C@H](C)c2cc(N)cc(C(F)(F)F)c2)c2cc([C@H]3CC[C@H](C(=O)N(C)C[C@H](C)O)CC3)ccc2n1` [I-254] the figure was 2 nM.

Regarding `Cc1nc(N[C@H](C)c2cc(N)cc(C(F)(F)F)c2)c2cc(C3CCS(=O)(=O)CC3)cc(C)c2n1` [I-316], the IC50 turned out to be 6 nM. Still for that read-out and setting: the result for `COc1cc2nc(C)nc(N[C@H](C)c3cccc(C)c3)c2cc1[C@H]1CC[C@H](C(=O)N(C)C)CC1` [I-267] reads 9 nM; that for `COc1cc2nc(C)nc(N[C@H](C)c3cccc(C(F)(F)F)c3)c2cc1-c1ccc(C(=O)N(C)C)c(C)c1` [I-216], 48 nM; that for `CCn1cc(-c2cc3c(N[C@H](C)c4cc(N)cc(C(F)(F)F)c4)nc(C)nc3cc2OC)ccc1=O` [I-350], 9 nM. Take `COCCN(C)C(=O)[C@H]1CC[C@H](c2ccc3nc(C)nc(N[C@H](C)c4cc(N)cc(C(F)(F)F)c4)c3c2)CC1` [I-236]: the IC50 amounted to 2 nM. Same read-out and setting: the result for `COCC(=O)N1CC=C(c2cc3c(N[C@H](C)c4cccc(C(F)(F)CO)c4)nc(C)nc3cc2OC)CC1` [I-286] reads 2 nM.

Staying with this experiment, now noted: read-out: IC50 (SOS1); assay buffer without EDTA (values not marked with an asterisk).
Regarding `Cc1nc(N[C@H](C)c2cccc(C(F)(F)F)c2C)c2cc(C3(O)CCC(O)CC3)ccc2n1` (stereo partly drawn) [I-63], the IC50 is 9 nM.

Staying with this experiment, now noted: values marked with * in the table; read-out: IC50 (SOS1).
As to `Cc1cccc([C@@H](C)Nc2nc(C)nc3ccc(-c4ccc(=O)n(C)c4)cc23)c1` [I-103], the IC50 came to 46 nM. As for `Cc1cccc([C@@H](C)Nc2nc(C)nc3ccc(-c4ccc(=O)n(CC(=O)N(C)C)c4)cc23)c1` [I-336], the IC50 was 26 nM.

As for `COc1cc2nc(C)nc(N[C@H](C)c3cccc(C)c3)c2cc1-c1ccn(CC(=O)N(C)C)c(=O)c1` [I-338], the IC50 worked out at 39 nM.

Turning to `Cc1cccc([C@@H](C)Nc2nc(C)nc3ccc(-c4ccn(CC(=O)N(C)C)c(=O)c4)cc23)c1` [I-340], the IC50 is 1 nM. As for `Cc1nc(N[C@H](C)c2cc(N)cc(C(F)(F)F)c2)c2cc(-c3ccc(=O)n(C)c3)ccc2n1` [I-104], the IC50 turned out to be 6 nM. On to `Cc1cccc([C@@H](C)Nc2nc(C)nc3ccc([C@H]4CC[S@@](=N)(=O)CC4)cc23)c1` [I-331], for which the IC50 turned out to be 25 nM.

Values taken from US12053473B2, “Benzylamino substituted quinazolines and derivatives as SOS1 inhibitors” (priority 2016, dated 2024).
